# Entries after “also recorded” stand apart in the source; their conditions may differ. Where two headings read alike, the source gives them in different places.
# Columns and labels:
# Type in all cases: biochemical
# [1] = system: PDE1 (calcium/calmodulin (Ca/CAM)-dependent PDE); assay: PDE1 inhibition, rat kidney
# From the text: (§1) In vitro PDE inhibitory activities against cyclic guanosine 3', 5'-monophosphate (cGMP) and cyclic adenosine 3', 5'-monophosphate (cAMP) phosphodiesterases can be determined by measurement of their IC50 inhibition of enzyme activity.
# (§2) The required PDE enzymes are isolated from a variety of sources, including rat kidney, human corpus cavernosum, human platelets, rabbit platelets, human cardiac ventricle, human skeletal muscle and bovine retina, essentially by the method of W J Thompson and M M Appleman (Biochem, 1971, 10, 311).
# (§3) For example, for some of the studies the calcium/calmodulin (Ca/CAM)-dependent PDE (PDE1) is obtained from either human cardiac ventricle or rat kidney. The cGMP-stimulated PDE (PDE2), the cGMP-specificPDE (PDE5) and the cGMP-inhibited cAMP PDE (PDE3) are obtained from human corpus cavernosum tissue. PDE5 is also obtained from human platelets or rabbit platelets by techniques usual in the art. The cAMP-specific PDE (PDE4) is obtained from rat kidney. The photoreceptor PDE (PDE6) is obtained from bovine retina.
# (§4) Assays are performed using a modification of the "batch" method of W J Thompson et al (Biochem, 1979, 18, 5228).
# [2] = biological target: T1, PDE5 (Oryctolagus cuniculus, UniProt G1SX67); assay: PDE5 inhibition, rabbit platelet
# T1 construct: PDE5 is also obtained from human platelets or rabbit platelets; from tissue; host or cells: rabbit platelets
# From the text: as §1, §2, §3, §4
# [3] = biological target: T2, PDE5 (Homo sapiens, UniProt O76074); assay: PDE5 inhibition, human platelet; settings: comparative study
# T2 construct: PDE5 is also obtained from human platelets or rabbit platelets; from tissue; host or cells: human platelets
# From the text: as §1, §2, §3, §4
# [4] = system: Ca/CAM-dependent PDE1; assay: PDE1 inhibition stated in words (source not given); settings: for potency and selectivity as PDE1 inhibitor: summary in words
# From the text: as §1, §2, §3, §4
# [5] = biological target: T3, PDE1 (calcium/calmodulin (Ca/CAM)-dependent PDE) (Homo sapiens, UniProt Q14123); assay: PDE inhibition, PDE type 1 from human cardiac ventricle; settings: PDE type 1, human cardiac ventricle
# T3 construct: obtained from either human cardiac ventricle or rat kidney; from tissue; host or cells: human cardiac ventricle
# From the text: as §1, §2, §3, §4
# [6] = biological target: T4, PDE2 (cGMP-stimulated PDE) (Homo sapiens, UniProt O00408); assay: PDE inhibition, PDE type 2 from human corpus cavernosum; settings: PDE type 2, human corpus cavernosum
# T4 construct: are obtained from human corpus cavernosum tissue; from tissue; host or cells: human corpus cavernosum
# From the text: as §1, §2, §3, §4
# [7] = system: PDE3 (cGMP-inhibited cAMP PDE); assay: PDE inhibition, PDE type 3 from human corpus cavernosum; settings: PDE type 3, human corpus cavernosum
# From the text: as §1, §2, §3, §4
# [8] = system: PDE4 (cAMP-specific PDE); assay: PDE inhibition, PDE type 4 from rat kidney; settings: PDE type 4, rat kidney
# From the text: as §1, §2, §3, §4
# [9] = biological target: T5, PDE5 (cGMP-specific PDE) (Homo sapiens, UniProt O76074); assay: PDE inhibition, PDE type 5 from human corpus cavernosum; settings: PDE type 5, human corpus cavernosum
# T5 construct: are obtained from human corpus cavernosum tissue; from tissue; host or cells: human corpus cavernosum
# From the text: as §1, §2, §3, §4
# [10] = biological target: T6, PDE6 (photoreceptor PDE) (Bos taurus, UniProt P11541+P23439); assay: PDE inhibition, PDE type 6 from bovine retina; settings: PDE type 6, bovine retina
# T6 construct: The photoreceptor PDE (PDE6) is obtained from bovine retina; from tissue; host or cells: bovine retina
# T6 sequence (P11541 2-856 limits assumed): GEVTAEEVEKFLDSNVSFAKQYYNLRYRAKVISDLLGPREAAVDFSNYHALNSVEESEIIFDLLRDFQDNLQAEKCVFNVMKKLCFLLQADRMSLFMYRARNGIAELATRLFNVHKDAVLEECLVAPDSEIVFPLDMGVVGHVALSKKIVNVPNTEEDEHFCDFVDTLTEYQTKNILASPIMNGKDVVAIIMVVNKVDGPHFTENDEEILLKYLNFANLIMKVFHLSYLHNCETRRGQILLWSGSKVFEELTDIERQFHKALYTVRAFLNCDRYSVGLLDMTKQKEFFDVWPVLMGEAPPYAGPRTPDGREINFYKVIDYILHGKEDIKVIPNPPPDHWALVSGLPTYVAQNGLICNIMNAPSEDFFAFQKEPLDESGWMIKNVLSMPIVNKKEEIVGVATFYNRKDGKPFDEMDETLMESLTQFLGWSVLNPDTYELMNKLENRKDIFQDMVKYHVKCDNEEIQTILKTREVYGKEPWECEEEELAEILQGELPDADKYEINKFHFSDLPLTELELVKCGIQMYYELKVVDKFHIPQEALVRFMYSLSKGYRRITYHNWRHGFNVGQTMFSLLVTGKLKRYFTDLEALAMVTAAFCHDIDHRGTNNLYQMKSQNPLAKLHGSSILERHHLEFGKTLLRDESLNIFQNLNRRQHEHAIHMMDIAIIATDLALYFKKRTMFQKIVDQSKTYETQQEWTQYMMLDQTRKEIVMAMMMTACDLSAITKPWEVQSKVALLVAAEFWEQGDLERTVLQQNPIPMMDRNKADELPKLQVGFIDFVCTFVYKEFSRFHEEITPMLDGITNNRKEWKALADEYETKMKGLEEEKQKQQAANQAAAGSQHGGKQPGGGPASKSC
# T6 sequence (P23439 2-850 limits assumed): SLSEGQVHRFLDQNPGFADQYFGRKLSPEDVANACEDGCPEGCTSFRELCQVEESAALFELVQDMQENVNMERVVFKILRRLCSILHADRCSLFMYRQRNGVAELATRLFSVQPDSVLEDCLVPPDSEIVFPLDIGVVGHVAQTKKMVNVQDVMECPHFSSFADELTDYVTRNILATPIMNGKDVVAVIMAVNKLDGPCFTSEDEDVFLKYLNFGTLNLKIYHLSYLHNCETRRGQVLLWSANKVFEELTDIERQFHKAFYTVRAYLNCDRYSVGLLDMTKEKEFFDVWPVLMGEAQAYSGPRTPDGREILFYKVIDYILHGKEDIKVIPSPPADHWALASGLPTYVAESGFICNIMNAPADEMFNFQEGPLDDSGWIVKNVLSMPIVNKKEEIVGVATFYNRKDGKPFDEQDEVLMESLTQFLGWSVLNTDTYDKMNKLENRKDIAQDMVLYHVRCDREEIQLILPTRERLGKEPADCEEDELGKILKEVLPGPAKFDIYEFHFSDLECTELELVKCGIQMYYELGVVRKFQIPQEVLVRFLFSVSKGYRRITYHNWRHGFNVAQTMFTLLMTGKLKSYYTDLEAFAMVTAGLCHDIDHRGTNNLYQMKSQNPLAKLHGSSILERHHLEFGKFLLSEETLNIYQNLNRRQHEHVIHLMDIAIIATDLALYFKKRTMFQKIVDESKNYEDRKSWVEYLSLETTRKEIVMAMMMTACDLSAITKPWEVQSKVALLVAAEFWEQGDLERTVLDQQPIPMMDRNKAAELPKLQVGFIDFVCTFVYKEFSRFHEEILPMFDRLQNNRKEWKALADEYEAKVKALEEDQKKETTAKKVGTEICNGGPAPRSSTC
# From the text: as §1, §2, §3, §4
# [11] = rat kidney, comparative study, cGMP, read-out: cGMP / PDE1 INHIBITION - IC50 Values
# [12] = rabbit platelet, comparative study, read-out: PDE5 INHIBITION - IC50 Values
# [13] = further studies, IC50 per protocol, read-out: RAT KIDNEY PDE1
# [14] = further studies, IC50 per protocol, read-out: RABBIT PLATELET PDE5
# T4 sequence (O00408 whole entry): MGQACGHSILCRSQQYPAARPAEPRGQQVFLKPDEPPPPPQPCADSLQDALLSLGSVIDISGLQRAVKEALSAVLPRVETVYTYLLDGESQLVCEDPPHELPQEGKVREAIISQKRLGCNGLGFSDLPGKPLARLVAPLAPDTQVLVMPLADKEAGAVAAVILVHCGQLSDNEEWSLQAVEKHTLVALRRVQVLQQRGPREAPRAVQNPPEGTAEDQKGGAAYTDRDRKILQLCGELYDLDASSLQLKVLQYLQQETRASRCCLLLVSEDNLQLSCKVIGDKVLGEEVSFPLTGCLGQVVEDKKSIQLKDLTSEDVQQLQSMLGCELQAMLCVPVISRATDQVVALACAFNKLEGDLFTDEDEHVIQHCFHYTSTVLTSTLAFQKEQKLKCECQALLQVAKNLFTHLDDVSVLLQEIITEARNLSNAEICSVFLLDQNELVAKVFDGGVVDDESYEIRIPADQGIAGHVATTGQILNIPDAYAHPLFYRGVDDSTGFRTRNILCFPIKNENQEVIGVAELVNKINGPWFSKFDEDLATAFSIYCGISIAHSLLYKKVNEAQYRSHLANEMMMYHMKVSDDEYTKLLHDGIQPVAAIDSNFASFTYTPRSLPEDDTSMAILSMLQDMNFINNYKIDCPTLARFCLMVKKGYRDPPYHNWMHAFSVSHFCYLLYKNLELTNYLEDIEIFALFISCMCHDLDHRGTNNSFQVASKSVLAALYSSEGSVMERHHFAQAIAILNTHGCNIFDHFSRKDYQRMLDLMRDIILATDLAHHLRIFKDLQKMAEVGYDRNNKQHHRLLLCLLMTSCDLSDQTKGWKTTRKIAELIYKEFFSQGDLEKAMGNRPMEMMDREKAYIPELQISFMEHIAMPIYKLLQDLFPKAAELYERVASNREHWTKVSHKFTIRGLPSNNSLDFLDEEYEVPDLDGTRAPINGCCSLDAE
# T3 sequence (Q14123 1-634 isoform Q14123-2): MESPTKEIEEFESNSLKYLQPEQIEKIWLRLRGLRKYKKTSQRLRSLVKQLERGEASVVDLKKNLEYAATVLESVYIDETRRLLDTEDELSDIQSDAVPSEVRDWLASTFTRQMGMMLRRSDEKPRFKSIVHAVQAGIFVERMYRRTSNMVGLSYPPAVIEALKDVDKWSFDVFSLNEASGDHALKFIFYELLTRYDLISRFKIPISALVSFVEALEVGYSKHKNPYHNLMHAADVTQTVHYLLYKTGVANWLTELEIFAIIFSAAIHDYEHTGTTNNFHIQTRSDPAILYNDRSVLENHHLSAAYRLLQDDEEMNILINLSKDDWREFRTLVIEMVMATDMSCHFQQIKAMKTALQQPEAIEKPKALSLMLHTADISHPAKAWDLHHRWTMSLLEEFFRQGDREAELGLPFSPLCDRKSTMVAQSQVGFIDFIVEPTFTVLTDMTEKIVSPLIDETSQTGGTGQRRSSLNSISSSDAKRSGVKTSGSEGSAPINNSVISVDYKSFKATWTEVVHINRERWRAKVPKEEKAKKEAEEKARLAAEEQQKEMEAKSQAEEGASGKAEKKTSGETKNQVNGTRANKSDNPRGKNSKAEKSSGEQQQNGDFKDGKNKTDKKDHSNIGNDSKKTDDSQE
Structure (SMILES),"IC50 [1, 11] [µM]","IC50 [2, 12] [µM]",IC50 [3] [µM],PDE1 inhibition ([4]; statement in words),"IC50 [1, 13] [µM]","IC50 [2, 14] [µM]",potency and selectivity as PDE1 inhibitor [4],IC50 [5] [µM],IC50 [6] [µM],IC50 [7] [µM],IC50 [8] [µM],IC50 [9] [µM],IC50 [10] [µM]
"Cc1nn(C)c2c(=O)[nH]c(Cc3ccc(N(C)C)cc3)nc12 ['188 compound, reference compound]",9.9,2.8,3.2,not as effective at such low concentrations; also recorded: at least a weak PDE1 inhibitor,–,–,–,–,–,–,–,–,–
CCCc1nn(C)c2c(=O)[nH]c(Cc3ccccc3NS(C)(=O)=O)nc12 [Example 36],–,–,–,–,0.059,1.8,potent and selective PDE1 inhibitors,–,–,–,–,–,–
CCCc1nn(C)c2c(=O)[nH]c(Cc3ccc(NS(=O)(=O)c4ccccc4)cc3)nc12 [Example 37],–,–,–,–,0.094,6.4,potent and selective PDE1 inhibitors,–,–,–,–,–,–
"CCCc1nn(C)c2c(=O)[nH]c(Cc3ccc(N(CC)CC)cc3)nc12 [Example 50, 5-[4-(diethylamino)benzyl]-1-methyl-3-propyl-6,7-dihydro-1H-pyrazolo[4,3-d]pyrimidin-7-one]",0.037,6.7,2.7,–,–,–,potent and selective PDE1 inhibitors,0.038,1.99,3.94,23,2.49,2.03

# Source: patent publication US6235742A, “5-substituted pyrazolo[4,3-D]pyrimidin-7-ones” (Pfizer Inc., priority 1997, dated 2001)
